The test system of the experiment is 8.3-TCR NOD mice. The experiment can be described thus: Prevention of diabetes in transgenic 8.3-TCR NOD mice. It counts as in vivo. The source says: TCR NOD mice were used to investigate the potential role of GABA on the T-cell function. The 8.3-TCR NOD mouse is a severe T1D mouse model (Amrani A et al, 1999 Clin Invest. 103(8):1201-9) and developed diabetic hyperglycemia at about age of 11 wks (FIG. 8A). Autoimmune diabetes in NOD mice results from destruction of pancreatic b-cells by T lymphocytes. The CD8+ cytotoxic T lymphocytes is thought to be the initial beta-cell insult in diabetes in which the initiation is a Fas-dependent process (Amrani A et al, 1999 Clin Invest. 103(8):1201-9). The 8.3-TCR NOD mouse monoclonal T-cells bearing a T-cell receptor (8.3-TCR) that is representative of TCRs used by CD8+ cytotoxic T lymphocytes propagated from the earliest insulitic lesions of NOD mice.
GAD65 has long been considered as a major antigen initiating the pathogenesis in T1D. Given that the protective effects of GABA in the development of diabetes in the diabetic animal models, I proposed that as the rate limiting enzyme of GABA synthesis, GAD has important role in maintaining islet function. To determine if treatment of GABA has effects on the expression levels of GAD65, we performed pancreatic GAD staining in the TCR transgenic NOD mice.
The techniques used for the in vivo and in vitro studies in this embodiment of the disclosure are also described. CD1 mice (Charles River Laboratories, St Constant, Canada), NOD mice and transgenic TCR NOD mice (Jackson Laboratory, USA) were housed under a controlled temperature and a 12-h light/12-h dark cycle in the St. Michael's Hospital Animal facility with free access to food (normal rodent chow) and water, except where noted. All procedures were conducted according to protocols and guidelines approved by the Canadian Council of Animal Care and the St. Michael's Hospital Animal Care committee. Mice were treated with GABA by daily intraperitoneal (i.p.) injection of 20·g GABA per mouse to reach ˜200 μM circulation concentration and PBS as control. The daily treatment is continuously conducted during 60-day experimental period. One wk after the GABA and PBS treatment, diabetes was induced in both groups by i.p.-injection of low-dose streptozotocin (STZ, Sigma Chemical Co., St. Louis, Mo. 40 mg/kg body weight) for 5 consecutive days. The development of hyperglycemia was monitored by measuring blood glucose from the tail vein every third day following STZ injections using an Ascensia ELITE® XL glucose meter. For some studies, overtly diabetic mice induced by STZ and without GABA treatment were divided into two groups: one group started receiving daily i.p. injection of 20·g GABA whereas other group received only PBS. The treatment was continued for 75 days. The handling of the NOD mice were similar to those CD1 mice except the STZ injection. The NOD mice have a susceptibility to spontaneous development of autoimmune T1D. The TCR transgenic 8.3-NOD mice have a markedly accelerated disease (J. Vergdaguer et al, 1997 J Exp Med. 186(10):1663-76).
Following dewaxing, […] as described previously (Wang Q, Brubaker P L 2002 Diabetologia 45:1263-1273), endogenous peroxidase activity was quenched by incubating sections in 0.3% H2O2 in water for 30 min and antigen retrieval was performed by heating slides in 10 mM sodium citrate buffer, pH 6.0, at ˜70° C. for 30 min. […]

“Also recorded” adds a separate entry of the source.

The results in this text go back to patent US9463174B2, “Pharmaceutical composition for the treatment of type-1 diabetes” (priority 2008, dated 2016).

With `NCCCC(=O)O` [GABA, gamma-aminobutyric acid], where the note is “GABA-treated TCR-NOD mice”, the alpha-cell mass entry is recorded as “largely reserved” and the “islet mass / beta-cell mass” value was “largely reserved”. Also, the “pancreatic insulin and GAD65/67 staining” value (TCR transgenic NOD mice) was “largely reserved the islet beta-cell mass and the intact association with GAD65; also recorded: reserves insulin and GAD65/67 content”. In addition, where the note is “daily GABA vs saline-treated”, the “development of diabetic hyperglycemia” value is “completely prevented the development of diabetic hyperglycemia; also recorded: completely prevents diabetic hyperglycemia”. Besides, the “lymphocytes (T-cell) infiltration in pancreatic islets” value (vs PBS-treated) is given as “dramatically blocked; also recorded: obviously diminished”.
